Several values for one entry are separate records, joined by “and”; a condition that tells them apart may be missing. Equal values may be shown once. Inconclusive results and toxic doses are left out.

The subject of this assay is B6C3F1 mice, ip Sarcoma M5076, median survival T/C. The assay is described as follows: NCI In Vivo Anticancer Drug Screen. Data for tumor model Sarcoma M5076 (intraperitoneal) in B6C3F1 mice. The conditions noted are these: endpoint: median survival time, higher = longer survival. The essentials:
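The readout is a ratio of survival in drug-treated animals to survival in animals given vehicle alone, taken in mice bearing a transplanted tumour line.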

Where [1] appears, read: dose: 2.0 mg/kg/injection, schedule: Q04DX004 (ip), vehicle: saline with Tween-80.
Where [2] appears, read: dose: 4.0 mg/kg/injection, schedule: Q04DX004 (ip), vehicle: saline with Tween-80.
Where [3] appears, read: dose: 25.0 mg/kg/injection, schedule: Q04DX004 (ip), vehicle: saline with Tween-80.
[4] abbreviates: dose: 50.0 mg/kg/injection, schedule: Q04DX004 (ip), vehicle: saline with Tween-80.
Where [5] appears, read: dose: 25.0 mg/kg/injection, schedule: Q04DX004 (ip), vehicle: saline.
[6] abbreviates: dose: 50.0 mg/kg/injection, schedule: Q04DX004 (ip), vehicle: saline.
[7] abbreviates: dose: 100.0 mg/kg/injection, schedule: Q04DX004 (ip), vehicle: saline.
Setting [8] is: dose: 200.0 mg/kg/injection, schedule: Q04DX004 (ip), vehicle: saline.
Where [9] appears, read: dose: 400.0 mg/kg/injection, schedule: Q04DX004 (ip), vehicle: saline.

`N[C@@H](Cc1ccc(N(CCCl)CCCl)cc1)C(=O)O`: the T/C runs as follows: (dose: 0.5 mg/kg/injection, schedule: Q04DX004 (ip), vehicle: saline with Tween-80) 124 % of control; under setting [1], 188 % of control; (dose: 2.0 mg/kg/injection, schedule: Q04DX004 (ip), vehicle: saline) 151 % of control; under setting [2], 213 % of control and 221 % of control; (dose: 4.0 mg/kg/injection, schedule: Q04DX004 (ip), vehicle: saline) 172 % of control; (dose: 8.0 mg/kg/injection, schedule: Q04DX004 (ip), vehicle: saline with Tween-80) 251 % of control. For the same compound, the T/C (dose: 8.0 mg/kg/injection, schedule: Q04DX004 (ip), vehicle: saline) was 251 % of control.

In the case of `COc1cc2c(c3c1/c(=N/N)c1ccccc1n3C)C=CC(C)(C)O2`, the T/C by setting is: under setting [3], 108 % of control; under setting [4], 110 % of control; (dose: 100.0 mg/kg/injection, schedule: Q04DX004 (ip), vehicle: saline with Tween-80) 89 % of control; (dose: 200.0 mg/kg/injection, schedule: Q04DX004 (ip), vehicle: saline with Tween-80) 104 % of control.

`COC(=O)[C@@]12OC[C@]34[C@H]([C@@H](O)[C@@H]1O)[C@@]1(C)CC(=O)C(O)=C(C)[C@@H]1C[C@H]3OC(=O)[C@H](OC(=O)/C=C(\C)C(C)C)[C@@H]24`: the T/C was 97 % of control and 101 % of control (dose: 0.12 mg/kg/injection, schedule: Q04DX005 (ip), vehicle: saline); 97 % of control and 112 % of control and 124 % of control (dose: 0.13 mg/kg/injection, schedule: Q04DX004 (ip), vehicle: saline); 117 % of control and 122 % of control (dose: 0.13 mg/kg/injection, schedule: Q04DX005 (ip), vehicle: saline).

Consider `CCCCCC[Se][Se]CCCCCC`, for which the T/C reads like this: (dose: 3.12 mg/kg/injection, schedule: Q04DX004 (ip), vehicle: Klucel (hydroxypropylcellulose) (HPC)) 123 % of control; (dose: 6.25 mg/kg/injection, schedule: Q04DX004 (ip), vehicle: Klucel (hydroxypropylcellulose) (HPC)) 106 % of control; (dose: 12.5 mg/kg/injection, schedule: Q04DX004 (ip), vehicle: Klucel (hydroxypropylcellulose) (HPC)) 114 % of control; (dose: 25.0 mg/kg/injection, schedule: Q04DX004 (ip), vehicle: Klucel (hydroxypropylcellulose) (HPC)) 115 % of control.

`Cc1ccc(-c2nnc3cc(C)n4nnnc4n23)cc1`: the T/C was 97 % of control (dose: 17.5 mg/kg/injection, schedule: Q04DX004 (ip), vehicle: Klucel (hydroxypropylcellulose) (HPC)); 99 % of control (dose: 35.0 mg/kg/injection, schedule: Q04DX004 (ip), vehicle: Klucel (hydroxypropylcellulose) (HPC)); 99 % of control (dose: 70.0 mg/kg/injection, schedule: Q04DX004 (ip), vehicle: Klucel (hydroxypropylcellulose) (HPC)); 101 % of control (dose: 140.0 mg/kg/injection, schedule: Q04DX004 (ip), vehicle: Klucel (hydroxypropylcellulose) (HPC)); 97 % of control (dose: 280.0 mg/kg/injection, schedule: Q04DX004 (ip), vehicle: Klucel (hydroxypropylcellulose) (HPC)).

Turning to `O=C1c2c(O)cccc2-c2nn(CCNCCO)c3ccc(NCCNCCO)c1c23`, the T/C reads like this: (dose: 2.75 mg/kg/injection, schedule: Q04DX004 (ip), vehicle: water) 169 % of control; (dose: 5.5 mg/kg/injection, schedule: Q04DX004 (ip), vehicle: water) 233 % of control and 263 % of control; (dose: 11.0 mg/kg/injection, schedule: Q04DX004 (ip), vehicle: water) 243 % of control; (dose: 22.0 mg/kg/injection, schedule: Q04DX004 (ip), vehicle: water) 109 % of control.

Regarding `CC[C@@]1(O)C(=O)OCc2c1cc1n(c2=O)Cc2cc3c(N)cccc3nc2-1`, the T/C runs as follows: (dose: 0.25 mg/kg/injection, schedule: Q04DX004 (ip), vehicle: saline with Tween-80) 121 % of control; (dose: 1.0 mg/kg/injection, schedule: Q04DX004 (ip), vehicle: saline with Tween-80) 164 % of control and 168 % of control; under setting [1], 208 % of control; under setting [2], 177 % of control.

As for `N=C(N)Sc1cc(O)ccc1O`, the T/C by setting is: (dose: 43.75 mg/kg/injection, schedule: Q04DX004 (ip), vehicle: saline with Tween-80) 110 % of control; (dose: 87.5 mg/kg/injection, schedule: Q04DX004 (ip), vehicle: saline with Tween-80) 109 % of control; (dose: 175.0 mg/kg/injection, schedule: Q04DX004 (ip), vehicle: saline with Tween-80) 111 % of control; (dose: 350.0 mg/kg/injection, schedule: Q04DX004 (ip), vehicle: saline with Tween-80) 110 % of control.

Regarding `CCOc1ccc(-c2nc3ccc(-c4nc5ccc(N6CCN(C)CC6)cc5[nH]4)cc3[nH]2)cc1`, the T/C is, setting by setting: (dose: 3.12 mg/kg/injection, schedule: Q04DX004 (ip), vehicle: saline) 100 % of control; (dose: 6.25 mg/kg/injection, schedule: Q04DX004 (ip), vehicle: saline) 88 % of control; (dose: 12.5 mg/kg/injection, schedule: Q04DX004 (ip), vehicle: saline) 100 % of control; under setting [5], 92 % of control.

For `COc1nc2cc3c(cc2n2cccc12)oc1ccccc13`, the T/C runs as follows: (dose: 0.38 mg/kg/injection, schedule: Q04DX004 (ip), vehicle: saline with Tween-80) 92 % of control; (dose: 0.75 mg/kg/injection, schedule: Q04DX004 (ip), vehicle: saline with Tween-80) 89 % of control.

For the compound `COc1ccc(C[C@H](N)C(=O)NC2C(CO)OC(n3cnc4c(N(C)C)ncnc43)C2O)cc1` (stereo partly drawn), the T/C reads like this: under setting [6], 89 % of control; under setting [7], 117 % of control; under setting [8], 102 % of control; under setting [9], 108 % of control.

Turning to `O=c1c2cc3ccccc3cc2c(=O)n2n1CC=CC2`, the T/C is, setting by setting: (dose: 20.31 mg/kg/injection, schedule: Q04DX004 (ip), vehicle: Klucel (hydroxypropylcellulose) (HPC)) 100 % of control; (dose: 40.63 mg/kg/injection, schedule: Q04DX004 (ip), vehicle: Klucel (hydroxypropylcellulose) (HPC)) 99 % of control; (dose: 81.25 mg/kg/injection, schedule: Q04DX004 (ip), vehicle: Klucel (hydroxypropylcellulose) (HPC)) 99 % of control; (dose: 162.5 mg/kg/injection, schedule: Q04DX004 (ip), vehicle: Klucel (hydroxypropylcellulose) (HPC)) 99 % of control; (dose: 325.0 mg/kg/injection, schedule: Q04DX004 (ip), vehicle: Klucel (hydroxypropylcellulose) (HPC)) 99 % of control.

Take `Nc1ccn([C@@H](C=O)C[C@@H](C=O)CO)c(=O)n1`: the T/C runs as follows: under setting [5], 99 % of control; under setting [6], 99 % of control; under setting [7], 103 % of control; under setting [8], 108 % of control; under setting [9], 118 % of control.

As to `CC(=O)NCCSSCCCCS(=O)O`, the T/C is 99 % of control (dose: 37.5 mg/kg/injection, schedule: Q04DX004 (ip), vehicle: saline); 98 % of control (dose: 75.0 mg/kg/injection, schedule: Q04DX004 (ip), vehicle: saline); 100 % of control (dose: 150.0 mg/kg/injection, schedule: Q04DX004 (ip), vehicle: saline); 97 % of control (dose: 300.0 mg/kg/injection, schedule: Q04DX004 (ip), vehicle: saline); 104 % of control (dose: 600.0 mg/kg/injection, schedule: Q04DX004 (ip), vehicle: saline).

As for `O=C1C=CC(=CC=C2C=CN(CCCCCCCCCCCO)C=C2)C=C1`, the T/C (dose: 6.25 mg/kg/injection, schedule: Q04DX004 (ip), vehicle: saline with Tween-80) is 102 % of control; the T/C (dose: 12.5 mg/kg/injection, schedule: Q04DX004 (ip), vehicle: saline with Tween-80) is 109 % of control; the T/C under setting [3] was 102 % of control; the T/C under setting [4] is 111 % of control.

Regarding `O=C(Nc1cccc2ccccc12)C1C(=O)C(=O)N(c2cccc3ccccc23)C1=O` (stereo not drawn), the T/C is, setting by setting: (dose: 37.5 mg/kg/injection, schedule: Q04DX004 (ip), vehicle: Klucel (hydroxypropylcellulose) (HPC)) 105 % of control; (dose: 75.0 mg/kg/injection, schedule: Q04DX004 (ip), vehicle: Klucel (hydroxypropylcellulose) (HPC)) 104 % of control; (dose: 150.0 mg/kg/injection, schedule: Q04DX004 (ip), vehicle: Klucel (hydroxypropylcellulose) (HPC)) 88 % of control; (dose: 300.0 mg/kg/injection, schedule: Q04DX004 (ip), vehicle: Klucel (hydroxypropylcellulose) (HPC)) 91 % of control.
